Measured values published in PMC11748363, “Antimicrobial and Antiproliferative Properties of 2‐Phenyl‐N‐(Pyridin‐2‐yl)acetamides” (Chemical Biology & Drug Design, 2025).
Values after ≈ are worked out from the molar mass of the structure shown. Read-outs that look alike come from different tables or passages of the source.

Columns and labels:
[1] = test system: Enterococcus faecalis CCM 4224, ATCC 29212; experiment: Antibacterial microdilution broth MIC, EF; assay type: cell-based
[2] = test system: Escherichia coli CCM 3954, ATCC 25922; experiment: Antibacterial microdilution broth MIC, EC; assay type: cell-based
[3] = test system: Mycolicibacterium aurum DSM 43999; experiment: Antimycobacterial microdilution broth MIC (resazurin), M. aurum; assay type: cell-based; details: DSM43999, read-out: MIC M. aurum
[4] = test system: Aspergillus fumigatus ATCC 204305; experiment: Antifungal microdilution broth MIC, AF
[5] = test system: Acinetobacter baumannii DSM 30007, ATCC 19606; experiment: Antibacterial microdilution broth MIC, ACI; assay type: cell-based
[6] = test system: Staphylococcus epidermidis CCM 4418, ATCC 12228; experiment: Antibacterial microdilution broth MIC, SE; assay type: cell-based
[7] = test system: HepG2 cell line; experiment: Cytotoxicity CellTiter 96, HepG2; assay type: cell-based, human; details: Homo sapiens, HepG2, 24 h, 24 h incubation; ^c compound precipitated in the testing medium; ^d over the limit of tested concentrations
Method: The cytotoxicity of final compounds was determined in human hepatocellular carcinoma cell line HepG2.
Cytotoxicity determination
Human hepatocellular liver carcinoma cell line HepG2 purchased from Health Protection Agency Culture Collections (ECACC, Salisbury, UK) was cultured in MEM (Minimum Essentials Eagle Medium, Sigma–Aldrich) supplemented with 10% fetal bovine serum (PAA Laboratories, Pasching, Austria), 1% L-glutamine solution (Sigma–Aldrich) and non-essential amino acid solution (Sigma–Aldrich) in a humidified atmosphere containing 5% CO2 at 37 °C. For subculturing, the cells were harvested after trypsin/EDTA (Sigma–Aldrich) treatment at 37 °C. To evaluate cytotoxicity, the cells treated with the tested substances were used as experimental groups whereas untreated HepG2 cells served as controls. The cells were seeded in density 10,000 cells per well in a 96 well plate. The next day the cells were treated with each of the tested substances dissolved in DMSO. The tested substances were
in triplicates according to their solubility. Simultaneously, the controls representing 100% cell viability, 0% cell viability (the cells treated with 10% DMSO), no cell control and vehiculum controls were also
the reagent from the kit CellTiter 96 AQueous One Solution Cell Proliferation Assay (CellTiter 96; PROMEGA, Fitchburg, USA) was added. After 2h incubation at 37 °C, absorbance of samples was recorded at 490 nm (TECAN, Infinita M200, Austria). A standard toxicological parameter IC50 was calculated by nonlinear regression from a semilogarithmic plot of incubation concentration versus percentage of absorbance relative to untre ated controls using GraphPad Prism 8 software.

[8] = test system: Staphylococcus aureus subsp. aureus CCM 4750, ATCC 43300 (MRSA); experiment: Antibacterial microdilution broth MIC, MRSA; assay type: cell-based; details: Staphylococcus aureus
[9] = test system: Pseudomonas aeruginosa CCM 3955, ATCC 27853; experiment: Antibacterial microdilution broth MIC, PA; assay type: cell-based
[10] = test system: Candida krusei CCM 8271, ATCC 6258; experiment: Antifungal microdilution broth MIC, CK; details: Pichia kudriavzevii
[11] = test system: Aspergillus flavus CCM 8363; experiment: Antifungal microdilution broth MIC, AFla
[12] = test system: Staphylococcus aureus CCM 4223, ATCC 29213; experiment: Antibacterial microdilution broth MIC, SA; assay type: cell-based; details: Staphylococcus aureus
[13] = test system: Candida parapsilosis CCM 8260, ATCC 22019; experiment: Antifungal microdilution broth MIC, CP; details: Lodderomyces parapsilosis
[14] = test system: Mycobacterium tuberculosis H37Ra; experiment: Antimycobacterial microdilution broth MIC (resazurin), Mtb H37Ra; assay type: cell-based; details: for MIC: Mycobacterium tuberculosis, H37RA, read-out: MIC Mtb H37Ra; for SI (selectivity index): SI = HepG2 IC50 (μM)/MIC MtbH37Ra (μM), calculated for compounds with MIC ≤ 31.25 μg/mL
[15] = test system: Candida tropicalis CCM 8264, ATCC 750; experiment: Antifungal microdilution broth MIC, CT
[16] = test system: Klebsiella pneumoniae CCM 4415, ATCC 10031; experiment: Antibacterial microdilution broth MIC, KP
[17] = test system: Trichophyton interdigitale CCM 8377, ATCC 9533; experiment: Antifungal microdilution broth MIC, TI; details: Trichophyton interdigitale
[18] = test system: Mycolicibacterium smegmatis DSM 43465; experiment: Antimycobacterial microdilution broth MIC (resazurin), M. smegmatis; assay type: cell-based; details: DSM43465, read-out: MIC M. smegmatis
[19] = test system: Candida albicans CCM 8320, ATCC 24433; experiment: Antifungal microdilution broth MIC, CA
[20] = test system: Lichtheimia corymbifera CCM 8077; experiment: Antifungal microdilution broth MIC, LC
[21] = ATCC204305, 24 h, read-out: MIC AF 24h
[22] = ATCC204305, 48 h, read-out: MIC AF 48h
[23] = CCM8363, 24 h, read-out: MIC AFla 24h
[24] = CCM8363, 48 h, read-out: MIC AFla 48h
[25] = CCM8077, 24 h, read-out: MIC LC 24h
[26] = CCM8077, 48 h, read-out: MIC LC 48h

Row | SMILES | MIC ([1]; 24 h, read-out: MIC EF 24h) | MIC ([1]; 48 h, read-out: MIC EF 48h) | MIC ([2]; 24 h, read-out: MIC EC 24h) | MIC ([2]; 48 h, read-out: MIC EC 48h) | MIC [3] | MIC [4, 21] | MIC [4, 22] | MIC ([5]; 24 h, read-out: MIC ACI 24h) | MIC ([5]; 48 h, read-out: MIC ACI 48h) | MIC ([6]; 24 h, read-out: MIC SE 24h) | MIC ([6]; 48 h, read-out: MIC SE 48h) | IC50 [7] | MIC ([8]; 24 h, read-out: MIC MRSA 24h) | MIC ([8]; 48 h, read-out: MIC MRSA 48h) | MIC ([9]; 24 h, read-out: MIC PA 24h) | MIC ([9]; 48 h, read-out: MIC PA 48h) | MIC ([10]; 24 h, read-out: MIC CK 24h) | MIC ([10]; 48 h, read-out: MIC CK 48h) | MIC [11, 23] | MIC [11, 24] | further results
1 | O=C(Cc1cccc(C(F)(F)F)c1)Nc1ccccn1 [Compound 25] | > 500 µM | > 500 µM | > 500 µM | > 500 µM | 125 µg/mL (≈ 446 µM) | > 500 µM | > 500 µM | > 500 µM | > 500 µM | > 500 µM | > 500 µM | 724 µM | > 500 µM | > 500 µM | > 500 µM | > 500 µM | > 500 µM | > 500 µM | > 500 µM | > 500 µM | MIC ([12]; 24 h, read-out: MIC SA 24h): > 500 µM; MIC ([12]; 48 h, read-out: MIC SA 48h): > 500 µM; MIC ([13]; 24 h, read-out: MIC CP 24h): > 500 µM; MIC ([13]; 48 h, read-out: MIC CP 48h): > 500 µM; MIC ([14]; Calculated from MIC (μg/mL)): 223 µM; MIC [14]: 62.5 µg/mL; MIC ([15]; 24 h, read-out: MIC CT 24h): > 500 µM; MIC ([15]; 48 h, read-out: MIC CT 48h): > 500 µM; MIC KP 24h [16]: > 500 µM; MIC KP 48h [16]: > 500 µM; MIC ([17]; 72 h, read-out: MIC TI 72h): 500 µM (≈ 140 µg/mL); MIC ([17]; 120 h, read-out: MIC TI 120h): 500 µM (≈ 140 µg/mL); MIC [18]: > 500 µg/mL; MIC ([19]; 24 h, read-out: MIC CA 24h): > 500 µM; MIC ([19]; 48 h, read-out: MIC CA 48h): > 500 µM; MIC [20, 25]: > 500 µM; MIC [20, 26]: > 500 µM
2 | O=C(Cc1cccc(C(F)(F)F)c1)Nc1cccc(Cl)n1 [Compound 27] | > 500 µM | > 500 µM | > 500 µM | > 500 µM | 15.6 µg/mL (≈ 49.7 µM) | > 500 µM | > 500 µM | > 500 µM | > 500 µM | 250 µM (≈ 78.7 µg/mL) | 250 µM (≈ 78.7 µg/mL) | 146 µM | > 500 µM | > 500 µM | > 500 µM | > 500 µM | > 500 µM | > 500 µM | > 500 µM | > 500 µM | MIC ([12]; 24 h, read-out: MIC SA 24h): > 500 µM; MIC ([12]; 48 h, read-out: MIC SA 48h): > 500 µM; MIC ([13]; 24 h, read-out: MIC CP 24h): > 500 µM; MIC ([13]; 48 h, read-out: MIC CP 48h): > 500 µM; MIC ([14]; Calculated from MIC (μg/mL)): 99.3 µM; MIC [14]: 31.2 µg/mL; SI (selectivity index) [14]: 1.5; MIC ([15]; 24 h, read-out: MIC CT 24h): > 500 µM; MIC ([15]; 48 h, read-out: MIC CT 48h): > 500 µM; MIC KP 24h [16]: > 500 µM; MIC KP 48h [16]: > 500 µM; MIC ([17]; 72 h, read-out: MIC TI 72h): > 500 µM; MIC ([17]; 120 h, read-out: MIC TI 120h): > 500 µM; MIC [18]: > 500 µg/mL; MIC ([19]; 24 h, read-out: MIC CA 24h): > 500 µM; MIC ([19]; 48 h, read-out: MIC CA 48h): > 500 µM; MIC [20, 25]: > 500 µM; MIC [20, 26]: > 500 µM
3 | O=C(Cc1ccc(C(F)(F)F)cc1)Nc1ccccn1 [Compound 28] | > 500 µM | > 500 µM | > 500 µM | > 500 µM | > 500 µg/mL | > 500 µM | > 500 µM | > 500 µM | > 500 µM | > 500 µM | > 500 µM | 408 µM | > 500 µM | > 500 µM | > 500 µM | > 500 µM | > 500 µM | > 500 µM | > 500 µM | > 500 µM | MIC ([12]; 24 h, read-out: MIC SA 24h): > 500 µM; MIC ([12]; 48 h, read-out: MIC SA 48h): > 500 µM; MIC ([13]; 24 h, read-out: MIC CP 24h): > 500 µM; MIC ([13]; 48 h, read-out: MIC CP 48h): > 500 µM; MIC ([14]; Calculated from MIC (μg/mL)): 112 µM; MIC [14]: 31.2 µg/mL; SI (selectivity index) [14]: 3.7; MIC ([15]; 24 h, read-out: MIC CT 24h): > 500 µM; MIC ([15]; 48 h, read-out: MIC CT 48h): > 500 µM; MIC KP 24h [16]: > 500 µM; MIC KP 48h [16]: > 500 µM; MIC ([17]; 72 h, read-out: MIC TI 72h): > 500 µM; MIC ([17]; 120 h, read-out: MIC TI 120h): > 500 µM; MIC [18]: > 500 µg/mL; MIC ([19]; 24 h, read-out: MIC CA 24h): > 500 µM; MIC ([19]; 48 h, read-out: MIC CA 48h): > 500 µM; MIC [20, 25]: > 500 µM; MIC [20, 26]: > 500 µM
